The target in experiment [1] is T1, Vitamin D3 receptor (Homo sapiens) (UniProt P11473).
T1 sequence (whole entry): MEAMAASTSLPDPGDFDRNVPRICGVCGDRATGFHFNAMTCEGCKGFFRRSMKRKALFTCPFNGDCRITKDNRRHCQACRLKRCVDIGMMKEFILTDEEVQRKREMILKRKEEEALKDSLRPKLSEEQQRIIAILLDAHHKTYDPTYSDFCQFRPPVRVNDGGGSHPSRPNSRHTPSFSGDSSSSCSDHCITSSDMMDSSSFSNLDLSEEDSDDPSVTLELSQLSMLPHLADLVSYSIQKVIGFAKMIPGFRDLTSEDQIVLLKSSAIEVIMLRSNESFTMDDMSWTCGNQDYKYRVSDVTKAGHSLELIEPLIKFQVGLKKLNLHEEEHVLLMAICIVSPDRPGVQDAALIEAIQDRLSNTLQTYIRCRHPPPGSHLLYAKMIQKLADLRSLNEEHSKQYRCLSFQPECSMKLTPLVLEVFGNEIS
In words: Binding affinity against Vitamin D3 receptor with reference to compound 1; value ranges from 15-30.

Experiment [2] concerns the target T1, Vitamin D3 receptor (Homo sapiens). In words: Binding affinity against Vitamin D3 receptor with reference to compound 1.
For experiment [3] the target is unchanged. In words: Binding affinity against Vitamin D3 receptor with reference to compound 1; value ranges from 2-5.
The target is the same in experiment [4]. The experiment can be described thus: Binding affinity for Vitamin D3 receptor compared to compound 1; value ranges from 5-10.

In experiment [1], `C=C1/C(=C/C=C2/CCC[C@]3(C)[C@@H](C(C)OCCC(O)(CC)CC)CC[C@@H]23)C[C@@H](O)C[C@@H]1O` (some centres undefined) had an A/Ad of 30.

As for `C=C1/C(=C/C=C2/CCC[C@]3(C)[C@@H]([C@@H](C)OCCCC(O)(CC)CC)CC[C@@H]23)C[C@@H](O)C[C@@H]1O`, in experiment [2], the A/Ad was 200000. Take `C=C1/C(=C/C=C2/CCC[C@]3(C)[C@@H]([C@H](C)CCCC(O)(CC)CC)CC[C@@H]23)C[C@@H](O)C[C@@H]1O`: in experiment [3], the A/Ad was 5.

On to `C=C1/C(=C/C=C2/CCC[C@]3(C)[C@@H](C(C)COCC(C)(C)O)CC[C@@H]23)C[C@@H](O)C[C@@H]1O` (some centres undefined), for which the A/Ad in experiment [2] came out at 0.2. For `C=C1/C(=C/C=C2/CCC[C@@]3(C)[C@H]2CC[C@H]3[C@@H](C)CCCCC(O)(CC)CC)C[C@@H](O)C[C@@H]1O`, the A/Ad in experiment [2] was 5. On the same count and under the same terms, under `C=C1/C(=C/C=C2/CCC[C@]3(C)[C@@H]([C@@H](C)CCCC(O)(CC)CC)CC[C@@H]23)C[C@@H](O)C[C@@H]1O` stands 100. As for `C=C1/C(=C/C=C2/CCC[C@]3(C)C(C(C)OCCC(C)(C)O)CC[C@@H]23)C[C@@H](O)C[C@@H]1O` (single isomer, unassigned), the A/Ad in experiment [4] was found to be 10. In turn, `C=C1/C(=C/C=C2/CCC[C@]3(C)C([C@H](C)OCCCC(O)(CC)CC)CC[C@@H]23)C[C@@H](O)C[C@@H]1O` (single isomer, unassigned) came in with an A/Ad in experiment [2] of 20. On to `C=C1/C(=C/C=C2/CCC[C@]3(C)[C@@H]([C@@H](C)CCCCC(O)(CC)CC)CC[C@@H]23)C[C@@H](O)C[C@@H]1O`, for which the A/Ad in experiment [2] worked out at 200.

For the origin of these results see ChEMBL document CHEMBL1149112, “Predicting the cell differentiation activity of 1 alpha,25-dihydroxyvitamin D3 side chain analogues from docking simulations” (J Med Chem, 2004).
